From ChEMBL document CHEMBL4145521, “Regioselective synthesis of 3,4-diaryl-5-unsubstituted isoxazoles, analogues of natural cytostatic combretastatin A4” (Eur J Med Chem, 2018)

Columns and labels:
Assay type in all cases: functional
COLO 205 [1] = experiment: Cytotoxicity against human COLO205 cells assessed as cell growth at 0.01 uM incubated for 48 hrs by sulforhodamine B assay relative to control; conditions: COLO 205, 48 h, read-out: Activity
KM12 [2] = experiment: Cytotoxicity against human KM12 cells assessed as cell growth at 0.01 uM incubated for 48 hrs by sulforhodamine B assay relative to control; conditions: KM12, 48 h, read-out: Activity
SF-268 = experiment: Cytotoxicity against human SF268 cells assessed as cell growth at 0.01 uM incubated for 48 hrs by sulforhodamine B assay relative to control; conditions: SF-268, 48 h, read-out: Activity
MDA-MB-435 = experiment: Cytotoxicity against human MDA-MB-435 cells assessed as cell growth at 0.01 uM incubated for 48 hrs by sulforhodamine B assay relative to control; conditions: MDA-MB-435, 48 h, read-out: Activity
NCI-H322M [3] = experiment: Cytotoxicity against human NCI-H322M cells assessed as cell growth at 0.1 uM incubated for 48 hrs by sulforhodamine B assay relative to control; conditions: read-out: Activity
COLO 205 [4] = experiment: Cytotoxicity against human COLO205 cells assessed as cell growth at 0.1 uM incubated for 48 hrs by sulforhodamine B assay relative to control; conditions: COLO 205, 48 h, read-out: Activity
HT-29 = experiment: Cytotoxicity against human HT-29 cells assessed as cell growth at 0.1 uM incubated for 48 hrs by sulforhodamine B assay relative to control; conditions: HT-29, 48 h, read-out: Activity
KM12 [5] = experiment: Cytotoxicity against human KM12 cells assessed as cell growth at 0.1 uM incubated for 48 hrs by sulforhodamine B assay relative to control; conditions: KM12, 48 h, read-out: Activity
U-251 [6] = experiment: Cytotoxicity against human U251 cells assessed as cell growth at 0.1 uM incubated for 48 hrs by sulforhodamine B assay relative to control; conditions: U-251, 48 h, read-out: Activity
M14 = experiment: Cytotoxicity against human M14 cells assessed as cell growth at 0.1 uM incubated for 48 hrs by sulforhodamine B assay relative to control; conditions: M14, 48 h, read-out: Activity
OVCAR-3 = experiment: Cytotoxicity against human OVCAR3 cells assessed as cell growth at 0.1 uM incubated for 48 hrs by sulforhodamine B assay relative to control; conditions: OVCAR-3, 48 h, read-out: Activity
MDA-MB-468 [7] = experiment: Cytotoxicity against human MDA-MB-468 cells assessed as cell growth at 0.1 uM incubated for 48 hrs by sulforhodamine B assay relative to control; conditions: MDA-MB-468, 48 h, read-out: Activity
CCRF-CEM = experiment: Cytotoxicity against human CCRF-CEM cells assessed as cell growth at 1 uM incubated for 48 hrs by sulforhodamine B assay relative to control; conditions: read-out: Activity
MOLT-4 = experiment: Cytotoxicity against human MOLT4 cells assessed as cell growth at 1 uM incubated for 48 hrs by sulforhodamine B assay relative to control; conditions: MOLT-4, 48 h, read-out: Activity
NCI-H322M [8] = experiment: Cytotoxicity against human NCI-H322M cells assessed as cell growth at 1 uM incubated for 48 hrs by sulforhodamine B assay relative to control; conditions: read-out: Activity
IGROV-1 [9] = experiment: Cytotoxicity against human IGROV1 cells assessed as cell growth at 1 uM incubated for 48 hrs by sulforhodamine B assay relative to control; conditions: IGROV-1, 48 h, read-out: Activity
OVCAR-4 = experiment: Cytotoxicity against human OVCAR4 cells assessed as cell growth at 1 uM incubated for 48 hrs by sulforhodamine B assay relative to control; conditions: OVCAR-4, 48 h, read-out: Activity
786-0 [10] = experiment: Cytotoxicity against human 786-0 cells assessed as cell growth at 1 uM incubated for 48 hrs by sulforhodamine B assay relative to control; conditions: 786-0, 48 h, read-out: Activity
BT-549 = experiment: Cytotoxicity against human BT549 cells assessed as cell growth at 1 uM incubated for 48 hrs by sulforhodamine B assay relative to control; conditions: BT-549, 48 h, read-out: Activity
MDA-MB-468 [11] = experiment: Cytotoxicity against human MDA-MB-468 cells assessed as cell growth at 1 uM incubated for 48 hrs by sulforhodamine B assay relative to control; conditions: MDA-MB-468, 48 h, read-out: Activity
NCI-H460 = experiment: Cytotoxicity against human NCI-H460 cells assessed as cell growth at 10 uM incubated for 48 hrs by sulforhodamine B assay relative to control; conditions: NCI-H460, 48 h, read-out: Activity
U-251 [12] = experiment: Cytotoxicity against human U251 cells assessed as cell growth at 10 uM incubated for 48 hrs by sulforhodamine B assay relative to control; conditions: U-251, 48 h, read-out: Activity
HCT-116 = experiment: Cytotoxicity against human HCT116 cells assessed as cell growth at 100 uM incubated for 48 hrs by sulforhodamine B assay relative to control; conditions: HCT-116, 48 h, read-out: Activity
IGROV-1 [13] = experiment: Cytotoxicity against human IGROV1 cells assessed as cell growth at 100 uM incubated for 48 hrs by sulforhodamine B assay relative to control; conditions: IGROV-1, 48 h, read-out: Activity
SN12C [14] = experiment: Cytotoxicity against human SN12C cells assessed as cell growth at 100 uM incubated for 48 hrs by sulforhodamine B assay relative to control; conditions: read-out: Activity
NCI-H226 = experiment: Cytotoxicity against human NCI-H226 cells incubated for 48 hrs by sulforhodamine B assay; conditions: NCI-H226, 48 h
SW-620 = experiment: Cytotoxicity against human SW620 cells incubated for 48 hrs by sulforhodamine B assay; conditions: SW-620, 48 h
SK-MEL-2 = experiment: Cytotoxicity against human SK-MEL-2 cells incubated for 48 hrs by sulforhodamine B assay; conditions: SK-MEL-2, 48 h
786-0 [15] = experiment: Cytotoxicity against human 786-0 cells incubated for 48 hrs by sulforhodamine B assay; conditions: 786-0, 48 h
SN12C [16] = experiment: Cytotoxicity against human SN12C cells incubated for 48 hrs by sulforhodamine B assay
MDA-MB-468 [17] = experiment: Cytotoxicity against human MDA-MB-468 cells incubated for 48 hrs by sulforhodamine B assay; conditions: MDA-MB-468, 48 h
[18] = read-out: LC50 (the source's name)
[19] = read-out: pLC50 (the source's name) (converted)

Compound `COc1ccc(-c2nocc2-c2cc(OC)c(OC)c(OC)c2)cc1` has a growth at 0.01 µM (COLO 205 [1]) of 91%, a growth at 0.01 µM (KM12 [2]) of 92% and a growth at 0.01 µM (SF-268) of 95%. The growth at 0.01 µM (MDA-MB-435) was 79%, the growth at 0.1 µM (NCI-H322M [3]) was 76% and the growth at 0.1 µM (COLO 205 [4]) was 37%. It also gave a growth at 0.1 µM (HT-29) of 13%, a growth at 0.1 µM (KM12 [5]) of 26% and a growth at 0.1 µM (U-251 [6]) of 48%. For the same compound, the growth at 0.1 µM (M14) was 41%, the growth at 0.1 µM (OVCAR-3) was 15% and the growth at 0.1 µM (MDA-MB-468 [7]) was 55%. For the same compound, the growth at 1 µM (CCRF-CEM) was 24%, the growth at 1 µM (MOLT-4) was 44% and the growth at 1 µM (NCI-H322M [8]) was 46%. The growth at 1 µM (IGROV-1 [9]) was 47%, the growth at 1 µM (OVCAR-4) was 49% and the growth at 1 µM (786-0 [10]) was 37%. For the same compound, the growth at 1 µM (BT-549) was 33%, the growth at 1 µM (MDA-MB-468 [11]) was 3% and the growth at 10 µM (NCI-H460) was 4%. For the same compound, the growth at 10 µM (U-251 [12]) was 19%, the growth at 100 µM (HCT-116) was -29% and the growth at 100 µM (IGROV-1 [13]) was 2%. It also gave a growth at 100 µM (SN12C [14]) of -1%, a GI50 (NCI-H226; read-out: GI50) of 15.5 µM and an LC50 (NCI-H226; read-out: LC50) greater than 100 µM. It also gave a TGI (NCI-H226; read-out: TGI) of 58.3 µM, a GI50 (NCI-H226; read-out: pGI50 (converted)) of 15.5 µM and an LC50 (NCI-H226; read-out: pLC50 (converted)) greater than 100 µM. The TGI (NCI-H226; read-out: pTGI (converted)) was 58.9 µM, the GI50 (SW-620; read-out: GI50) was 0.0509 µM and the CC50 (SW-620; [18]) was greater than 100 µM. For the same compound, the TGI (SW-620; read-out: TGI) was greater than 100 µM, the GI50 (SW-620; read-out: pGI50 (converted)) was 0.0513 µM and the CC50 (SW-620; [19]) was greater than 100 µM. It also gave a TGI (SW-620; read-out: pTGI) greater than 100 µM, a GI50 (SK-MEL-2; read-out: GI50) of 0.0664 µM and a CC50 (SK-MEL-2; [18]) greater than 100 µM. For the same compound, the TGI (SK-MEL-2; read-out: TGI) was 69.2 µM, the GI50 (SK-MEL-2; read-out: pGI50 (converted)) was 0.0661 µM and the CC50 (SK-MEL-2; [19]) was greater than 100 µM. For the same compound, the TGI (SK-MEL-2; read-out: pTGI (converted)) was 69.2 µM, the GI50 (786-0 [15]; read-out: GI50) was 0.174 µM and the LC50 (786-0 [15]; read-out: LC50) was greater than 100 µM. The TGI (786-0 [15]; read-out: TGI) was 38.6 µM, the GI50 (786-0 [15]; read-out: pGI50 (converted)) was 0.174 µM and the LC50 (786-0 [15]; read-out: pLC50 (converted)) was greater than 100 µM. The TGI (786-0 [15]; read-out: pTGI (converted)) was 38.9 µM, the GI50 (SN12C [16]; read-out: GI50) was 0.825 µM and the LC50 (SN12C [16]; read-out: LC50) was greater than 100 µM. The TGI (SN12C [16]; read-out: TGI) was 92.6 µM, the GI50 (SN12C [16]; read-out: pGI50 (converted)) was 0.832 µM and the LC50 (SN12C [16]; read-out: pLC50 (converted)) was greater than 100 µM. The TGI (SN12C [16]; read-out: pTGI (converted)) was 93.3 µM, the GI50 (MDA-MB-468 [17]; read-out: GI50) was 0.123 µM and the LC50 (MDA-MB-468 [17]; read-out: LC50) was greater than 100 µM. For the same compound, the TGI (MDA-MB-468 [17]; read-out: TGI) was 13.8 µM, the GI50 (MDA-MB-468 [17]; read-out: pGI50 (converted)) was 0.123 µM and the LC50 (MDA-MB-468 [17]; read-out: pLC50 (converted)) was greater than 100 µM. It also gave a TGI (MDA-MB-468 [17]; read-out: pTGI (converted)) of 13.8 µM.
